Reference: article PMC7465040, “Cytotoxic and Anti-Plasmodial Activities of Stephania dielsiana Y.C. Wu Extracts and the Isolated Compounds” (Molecules, 2020)
Like-named read-outs stand apart in the source and are kept apart here.

Tests used:
[1] = tested on: 184B5; assay: SRB cell proliferation assay, 184B5 non-cancer cells; type: cell-based, human; settings: Homo sapiens
Experimental: (§1) In vitro anticancer study: The in vitro anti-proliferative tests were carried out as described previously, using aliquots of the cell lines used therein. Briefly, HeLa, MDA-MB-231 and MDA-MB-468, MCF7, and 184B5 and MCF 10A cell lines were purchased from ATCC. The identity of the cell lines presented in this study were verified by short tandem repeat profiling by Genetica DNA Laboratories (www.celllineauthentication.com) (April 8, 2015). MCF10A was grown in DMEM F12 medium supplemented with 0.02 μg/mL epidermal growth factor, 10% FBS, 10 μg/mL insulin and […] hydrocortisone. MDA-MB-468 were grown in DMEM supplemented with 10% FBS and antibiotics cocktail (100 μg/mL streptomycin, 100 units/mL penicillin and 250 ng/mL amphotericin B). SRB cell proliferation assays were carried out as previously described, with some minor modifications. The concentration range for all tested cell lines were from 100–0.39 μg/mL for extracts and 100–0.39 μM for pure compounds. […] All experiments were carried out at least twice.

[2] = tested on: MDA-MB-231; assay: SRB cell proliferation assay, MDA-MB-231; type: cell-based, human; settings: for IC50: Homo sapiens; for Selectivity index (SI) 184B5 versus MDA-MB-231 / Selectivity index (SI) MCF10A versus MDA-MB-231: Table 2B; for Selectivity index (SI) 184B5 versus MDA-MB-231: non-cancer 184B5 vs cancer MDA-MB-231; for Selectivity index (SI) MCF10A versus MDA-MB-231: non-cancer MCF10A vs cancer MDA-MB-231
Experimental: as §1

[3] = tested on: chloroquine-susceptible 3D7 P. falciparum strain; assay: In vitro anti-plasmodial assay (HRP2 ELISA), 3D7; type: cell-based, Plasmodium falciparum; settings: for IC50: Plasmodium falciparum, 3D7, 72 h, read-out: IC50 (μM ± SD) 3D7; for SI 3D7 184B5 / SI 3D7 MCF10A: Table 3; for SI 3D7 184B5: selectivity index between 184B5 and parasites 3D7; for SI 3D7 MCF10A: selectivity index between MCF10A and parasites 3D7
Experimental: (§2) Parasites were grown in A-positive human blood (Etablissement Français du Sang, Marseille, France) under controlled atmospheric conditions that consisted of 10% O2, 5% CO2, and 85% N2 at 37 °C with a humidity of 95%.
(§3) In vitro anti-plasmodial assay: The two P. falciparum strains 3D7 and W2 were synchronized twice with sorbitol before use. The clonality of these strains was verified both in our laboratory and in an independent laboratory from the Worldwide Anti-malarial Resistance Network (WWARN) by PCR genotyping of the polymorphic genetic markers msp1 and msp2 and microsatellite loci. The compounds were re-suspended in methanol or DMSO 5% (v/v) and then diluted in methanol to obtain final concentrations ranging from 0.008 to 500 μg/mL (final concentration of 0.5% of methanol or DMSO). […] The plates were incubated for 72 h at 37 °C in controlled atmospheric conditions 5% CO2, 10% O2, and […]. After thawing the plates, haemolysed cultures were homogenized by vortexing the plates. Both the success of the drug susceptibility assay and the appropriate volume of haemolysed culture to use for each assay were determined for each clinical isolate during a preliminary HRP2 ELISA. Both the pre-test and subsequent ELISA assays were performed using a commercial kit (Malaria Ag Celisa, ref KM2159, Cellabs PTY LTD, Brookvale, Australia) according to the manufacturer’s recommendation. The optical density (OD) of each sample was measured with a spectrophotometer (Safire 2, Tecan, Lyon, France). […] The anti-plasmodial in vitro assay was performed five times for each product. The IC50 values represented the mean value calculated from five experiments. According to Hout, a selectivity index (SI) was based on the ratio between anti-parasitic and cytotoxic activities. In the case of our study, a SI was calculated between non-tumorigenic cell line 184B5 and parasites 3D7 or W2 and/or MCF10A and these two parasites.

[4] = tested on: chloroquine-resistant W2 P. falciparum strain; assay: In vitro anti-plasmodial assay (HRP2 ELISA), W2; type: cell-based, Plasmodium falciparum; settings: for IC50: Plasmodium falciparum, W2, 72 h, read-out: IC50 (μM ± SD) W2; for SI W2 184B5 / SI W2 MCF10A: Table 3; for SI W2 184B5: selectivity index between 184B5 and parasites W2; for SI W2 MCF10A: selectivity index between MCF10A and parasites W2
Experimental: as §2, §3

[5] = tested on: MDA-MB-468; assay: SRB cell proliferation assay, MDA-MB-468; type: cell-based, human; settings: for IC50: Homo sapiens; for Selectivity index (SI) 184B5 versus MDA-MB-468 / Selectivity index (SI) MCF10A versus MDA-MB-468: Table 2B; for Selectivity index (SI) 184B5 versus MDA-MB-468: non-cancer 184B5 vs cancer MDA-MB-468; for Selectivity index (SI) MCF10A versus MDA-MB-468: non-cancer MCF10A vs cancer MDA-MB-468
Experimental: as §1

[6] = tested on: MCF7; assay: SRB cell proliferation assay, MCF7; type: cell-based, human; settings: for IC50: Homo sapiens; for Selectivity index (SI) 184B5 versus MCF7 / Selectivity index (SI) MCF10A versus MCF7: Table 2B; for Selectivity index (SI) 184B5 versus MCF7: non-cancer 184B5 vs cancer MCF7; for Selectivity index (SI) MCF10A versus MCF7: non-cancer MCF10A vs cancer MCF7
Experimental: as §1

[7] = tested on: MCF 10A; assay: SRB cell proliferation assay, MCF10A non-cancer cells; type: cell-based; settings: Homo sapiens
Experimental: as §1

[8] = tested on: HeLa; assay: SRB cell proliferation assay, HeLa; type: cell-based, human; settings: for IC50: Homo sapiens, HeLa; for Selectivity index (SI) 184B5 versus HeLa / Selectivity index (SI) MCF10A versus HeLa: Table 2B; for Selectivity index (SI) 184B5 versus HeLa: non-cancer 184B5 vs cancer HeLa; for Selectivity index (SI) MCF10A versus HeLa: non-cancer MCF10A vs cancer HeLa
Experimental: as §1

[9] = tested on: HeLa, MDA-MB231, MDA-MB-468, MCF7, 184B5 and MCF10A cell lines; assay: SRB cell proliferation assay, whole panel of cell lines; type: cell-based, human; settings: Homo sapiens, read-out: IC50 values, range over the cell lines examined
Experimental: as §1

[10] = tested on: Plasmodium falciparum 3D7 and W2 strains; assay: In vitro anti-plasmodial assay, both strains; type: cell-based
Experimental: as §2, §3

[11] = 184B5, 72 h, read-out: IC50 (μM ± SD) 184B5
[12] = 184B5, read-out: IC50 (μM ± SD) 184B5
[13] = MDA-MB-231, 72 h, read-out: IC50 (μM ± SD) MDA-MB-231
[14] = MDA-MB-468, 72 h, read-out: IC50 (μM ± SD) MDA-MB-468
[15] = MCF7, 72 h, read-out: IC50 (μM ± SD) MCF7
[16] = 72 h, read-out: IC50 (μM ± SD) MCF 10A
[17] = read-out: IC50 (μM ± SD) MCF 10A
[18] = 72 h, read-out: IC50 (μM ± SD) HeLa
[19] = 72 h, HRP2 ELISA, mean of five experiments

Compound | IC50 [1, 11] | IC50 [1, 12] | IC50 [2, 13] | IC50 [3] | IC50 [4] | IC50 [5, 14] | IC50 [6, 15] | IC50 [7, 16] | IC50 [7, 17] | IC50 [8, 18] | Selectivity index (SI) 184B5 versus MDA-MB-231 [2] | Selectivity index (SI) MCF10A versus MDA-MB-231 [2] | SI 3D7 184B5 [3] | SI W2 184B5 [4] | Selectivity index (SI) 184B5 versus MDA-MB-468 [5] | Selectivity index (SI) MCF10A versus MDA-MB-468 [5] | Selectivity index (SI) 184B5 versus MCF7 [6] | Selectivity index (SI) MCF10A versus MCF7 [6] | Selectivity index (SI) 184B5 versus HeLa [8] | Selectivity index (SI) MCF10A versus HeLa [8] | further results
CCN(CC)CCCC(C)Nc1ccnc2cc(Cl)ccc12 (centres unmarked) [Chloroquine, reference compound] | > 50 µM | > 50 µM | 28.9 ± 0.4 µM | 0.021 ± 0.005 µM | 0.38 ± 0.03 µM | 33.2 ± 0.4 µM | > 50 µM | 40.5 ± 9.8 µM | 40.5 ± 9.8 µM | 29.8 ± 0.7 µM | – | – | – | – | – | – | – | – | – | – | –
COc1ccc2c(c1OC)CC1c3c(cc4c(c3-2)OCO4)CCN1C (centres unmarked) [Crebanine 4, crebanine] | 47.4 ± 2.83 µM | 47.4 ± 2.83 µM | 38.9 ± 7.1 µM | 1.56 ± 0.22 µM | 2.16 ± 0.38 µM | 17.8 ± 4.63 µM | 30.5 ± 4.89 µM | 47.2 ± 4.37 µM | 47.2 ± 4.37 µM | 48.1 ± 2.38 µM | 1.22 | 1.21 | 30.41 | 21.96 | 2.66 | 2.65 | 1.56 | 1.55 | 0.99 | 0.98 | SI 3D7 MCF10A [3]: 30.23; Selective index SI on 3D7 strain ([3]; vs 184B5 and MCF10A): > 20; SI W2 MCF10A [4]: 21.83; IC50 [9]: 17 to 48 µM; Anti-plasmodial activity against both 3D7 and W2 (in words) [10]: strong activity
C[C@H]1[C@@H](O)O[C@@H]2O[C@@]3(C)CC[C@H]4[C@H](C)CC[C@@H]1[C@@]24OO3 [Dihydroartemisinin, reference compound] | – | – | – | – | – | – | – | – | – | – | – | – | – | – | – | – | – | – | – | – | IC50 [3, 19]: 0.002 ± 0.001 µM; IC50 [4, 19]: 0.002 ± 0.001 µM
OC(c1cc(C(F)(F)F)nc2c(C(F)(F)F)cccc12)C1CCCCN1 (centres unmarked) [Mefloquine, reference compound] | – | – | – | – | – | – | – | – | – | – | – | – | 207.6 | 490.9 | – | – | – | – | – | – | IC50 ([1]; 184B5, Table 3, non-cancer cell line, read-out: IC50 (μM ± SD) 184B5): 10.8 ± 0.75 µM; IC50 [3, 19]: 0.052 ± 0.009 µM; IC50 [4, 19]: 0.022 ± 0.006 µM
CC(=O)O[C@H]1C(=O)[C@@]2(C)[C@H]([C@H](OC(=O)c3ccccc3)[C@]3(O)C[C@H](OC(=O)[C@H](O)[C@@H](NC(=O)c4ccccc4)c4ccccc4)C(C)=C1C3(C)C)[C@]1(OC(C)=O)CO[C@@H]1C[C@@H]2O [Paclitaxel, reference compound] | – | – | – | – | – | – | – | – | – | – | 1.67 | 1.10 | – | – | 0.67 | 0.42 | 0.98 | 0.62 | 0.7 | 0.44 | IC50 ([1]; 184B5, Table 2A, paclitaxel in nM (footnote a), read-out: IC50 184B5): 0.00265 ± 0.00191 µM; IC50 ([2]; MDA-MB-231, Table 2A, paclitaxel in nM (footnote a), read-out: IC50 MDA-MB-231): 0.00158 ± 0.00075 µM; IC50 ([5]; MDA-MB-468, Table 2A, paclitaxel in nM (footnote a), read-out: IC50 MDA-MB-468): 0.00396 ± 0.00032 µM; IC50 ([6]; MCF7, Table 2A, paclitaxel in nM (footnote a), read-out: IC50 MCF7): 0.00271 ± 0.00111 µM; IC50 ([7]; Table 2A, paclitaxel in nM (footnote a), read-out: IC50 MCF 10A): 0.00167 ± 0.00021 µM; IC50 ([8]; Table 2A, paclitaxel in nM (footnote a), read-out: IC50 HeLa): 0.00381 ± 0.00042 µM
COc1cccc2c1C[C@@H]1c3c(cc4c(c3-2)OCO4)CCN1C [Stephanine 3, stephanine] | 6.25 ± 0.14 µM | 6.25 ± 0.14 µM | 5.66 ± 0.16 µM | 0.69 ± 0.15 µM | 1.32 ± 0.38 µM | 7.14 ± 2.11 µM | 6.49 ± 0.43 µM | 7.19 ± 0.33 µM | 7.19 ± 0.33 µM | 3.33 ± 0.23 µM | 1.10 | 1.27 | 9.06 | 4.73 | 0.88 | 1.01 | 0.96 | 1.11 | 1.88 | 2.16 | Anti-plasmodial activity on 3D7 (in words) [3]: very effective; SI 3D7 MCF10A [3]: 10.42; Anti-plasmodial activity on W2 (in words) [4]: not effective; SI W2 MCF10A [4]: 5.45
